{"source": "patent US5276034A", "about": "“Substituted imidazolyl-alkyl-piperazine and -diazepine derivatives” (Syntex Pharmaceutical Ltd., priority 1991, dated 1994)", "key": {"[1]": {"tested_on": "abnormal neurones in brain areas after four vessel occlusion", "experiment": "Ten minute model of four vessel occlusion with 72 hour survival", "type": "in vivo", "conditions": "100 mg/kg i.a. 5 min plus 500 mg/kg i.p. 15 min post-ischaemia", "description": "B. Ten minute Model of four vessel occlusion with 72 hour survival.\nThe procedure used was that of Alps, et al., Neurology, 37, 809 (1987). The object of this assay was to count abnormally appearing cells in 7 different areas and exymers as a percentage of the total area counted. The number of counts per structure depended upon size, e.g., cortical areas had double the number of other areas. Mean whole brain scores were also determined for percent abnormalities. Normal brains were also used to account for incidence of artifact changes attributed to the fixation process.\n. In this case 6 animals were used with the results shown in the below table.\n2) Untreated (saline) ischemic controls--The animals were subjected to 10 minutes of bilateral common cartoid artery occlusion (with previously surgically sealed vertebral arteries) with 72 hours survival. The microscopic sections were prepared as in 1) above. In this case 11 animals were used with the results shown in the below table.\nParenteral, post-ischaemia treated--The animals were given 100 mg/kg i.a. of 1-diphenyl-methyl-4-[(2-(4-methylphenyl)-5-methylimidazol-4-yl)-methyl]piperazine trihydrochloride 5 minutes post-ischaemia plus 500 mg/kg i.p. of 1-diphenyl-methyl-4-[(2-(4-methylphenyl)-5-methylimidazol-4-yl)-methyl]piperazine trihydrochloride 15 minutes post-ischaemia. The microscopic sections were prepared according to 1) above. In this case 5 animals were used with the results shown in the below table."}, "[2]": {"tested_on": "abnormal neurones in brain after bilateral common carotid artery occlusion", "experiment": "Five minute model of bilateral common carotid artery occlusion in the gerbil with 72 hour survival", "type": "in vivo", "conditions": "then b.i.d. for 72 h", "description": "In vivo protective effects of the compounds of this invention against the deleterious effects of cerebral ischemia are determined by use of the standard gerbil brain ischemia model.\nA. Five minute model of bilateral common carotid artery occlusion in the gerbil with 72 hour survival\n2) Sham-operated animals--The animals were anesthetized with a halothane-nitrous oxide-oxygen mixture. […] The microscopic sections were prepared and counted as in 1) above. In this case 7 animals were used and 100 microscopic fields were counted.\n3) Untreated ischemic controls--In this case animals were subjected to 5 minute bilateral carotid artery occlusion with 72 hour survival. The microscopic sections were prepared and counted as in 1) above. In this case 12 animals were used and 120 microscopic fields were counted.\n4) Parenteral, 15 minute pre-ischemia treated--The animals were given 500 mg/kg i.p. of 1-diphenylmethyl-4-[(2-(4-methylphenyl)-5-methylimidazol-4-yl)methyl]piperazine trihydrochloride 15 minutes prior to ischaemic insult. The treatment was repeated b.i.d. for 72 hours. The microscopic sections were prepared and counted as in 1) above. In this case 10 animals were used and 100 microscopic fields were counted.\n5) Parenteral 15 minute pre-ischemic treated--The animals were given 250 mg/kg i.p. of 1-diphenylmethyl-4-[(2-(4-methylphenyl)-5-methylimidazol-4-yl)methyl]piperazine trihydrochloride 15 minutes prior to ischaemic insult. Treatment was repeated b.i.d. for 72 hours. The microscopic sections were prepared and counted as in 1) above. In this case 6 animals were used and 60 microscopic fields were counted.\n6) Parenteral 15 minute post-ischemia treated--The animals were given 500 mg/kg i.p. of 1-diphenylmethyl-4-[(2-(4-methylphenyl)-5-methylimidazol-4-yl)methyl]piperazine trihydrochloride 15 minutes after ischaemic insult. The treatment was repeated b.i.d. for 72 hours. The microscopic sections were prepared and counted as in 1) above. In this case 9 animals were used and 90 microscopic fields were counted.\n7) Oral, pre-ischemia treated--The animals were given 5 mg/kg p.o. b.i.d. of 1-diphenyl-methyl-4-[(2-(4-methylphenyl)-5-methylimidazol-4-yl)-methyl]piperazine trihydrochloride for 3 days and on the 4th day at 1 hour pre-ischaemic. Treatment was repeated b.i.d. for 72 hours. The microscopic sections were prepared and counted as in 1) above. In this case 11 animals were used and 110 microscopic fields were counted.\n8) Oral, pre-ischemia treated--The animals were given 10 mg/kg p.o. of 1-diphenyl-methyl-4-[(2-(4-methylphenyl)-5-methylimidazol-4-yl)-methyl]piperazine trihydrochloride for 3 days and on 4th day at 1 hour pre-ischaemia.Treatment was repeated b.i.d. for 72 hours. The microscopic sections were prepared and counted as in 1) above. In this case 9 animals were used and 90 microscopic fields were counted."}, "[3]": {"tested_on": "male normotensive rats (urine volume, sodium and potassium excretion)", "experiment": "Diuresis in male normotensive rats", "type": "in vivo, rat", "description": "Male normotensive rats weighing 290-380 g were divided into four groups of seven animals. All animals were fasted and deprived of water overnight. The following morning, each group of rats was hydrated with deionized water ([…]. p.o.) 45 minutes prior to the administration of vehicle (1% polysorbate 80 in deionized water) or 1-diphenyl-methyl-4-[(2-(4-methylphenyl)-5-methylimidazol-4-yl)methyl]-piperazine trihydrochloride at doses of 5, 15, or 30 mg/kg p.o. Fifteen minutes post-drug, the animals were saline loaded (30 ml/kg, p.o. 0.9% sodium chloride) and placed individually in metabolism cages. Urine was collected at 1, 3, and 6 hour intervals post-dose. Urine volumes were measured and sodium and potassium levels were determined by flame photometry. Differences between control and treated values were evaluated by one way analysis of variance."}}}
{"smiles": "Cc1ccc(-c2nc(CN3CCN(C(c4ccccc4)c4ccccc4)CC3)c(C)[nH]2)cc1.Cl.Cl.Cl", "note": "[1-diphenylmethyl-4-[(2-(4-methylphenyl)-5-methylimidazol-4-yl)methyl]piperazine trihydrochloride]", "values": [{"measurement": "Mean % Abnormal Neurones, Hip C2-5", "setting": "[1]; Hip C2-5", "value": "1.78 ± 0.99", "unit": "%"}, {"measurement": "Mean % Abnormal Neurones, Hip CA", "setting": "[1]; Hip CA", "value": "16.76 ± 4.00", "unit": "%"}, {"measurement": "Mean % Abnormal Neurones, Hip. Cortex", "setting": "[1]; Hip. Cortex", "value": "2.41 ± 0.30", "unit": "%"}, {"measurement": "Mean % Abnormal Neurones, Purk. cells", "setting": "[1]; Purk. cells", "value": "2.22 ± 0.79", "unit": "%"}, {"measurement": "Mean % Abnormal Neurones, Str. Cortex", "setting": "[1]; Str. Cortex", "value": "2.01 ± 0.29", "unit": "%"}, {"measurement": "Mean % Abnormal Neurones, Striatum", "setting": "[1]; Striatum", "value": "1.54 ± 0.33", "unit": "%"}, {"measurement": "Mean % Abnormal Neurones, Thalamus", "setting": "[1]; Thalamus", "value": "0.64 ± 0.25", "unit": "%"}, {"measurement": "mean % abnormal neurones", "setting": "[2]; 5 mg/kg p.o. b.i.d. 3 days and 1 h pre-ischemia", "value": "3.00±1.00", "unit": "%"}, {"measurement": "mean % abnormal neurones", "setting": "[2]; 10 mg/kg p.o. 3 days and 1 h pre-ischemia", "value": "22.00±3.10", "unit": "%"}, {"measurement": "mean % abnormal neurones", "setting": "[2]; 250 mg/kg i.p. 15 min pre-ischemia", "value": "27.20±4.30", "unit": "%"}, {"measurement": "mean % abnormal neurones", "setting": "[2]; 500 mg/kg i.p. 15 min post-ischemia", "value": "41.70±4.60", "unit": "%"}, {"measurement": "mean % abnormal neurones", "setting": "[2]; 500 mg/kg i.p. 15 min pre-ischemia", "value": "26.90±3.30", "unit": "%"}, {"measurement": "Potassium ion, Cumulative", "setting": "[3]; 5 mg/kg p.o., 1 hour", "value": ".04 ± .03 mEq"}, {"measurement": "Sodium ion, Cumulative", "setting": "[3]; 5 mg/kg p.o., 1 hour", "value": ".07 ± .06 mEq"}, {"measurement": "Urine Volume, Cumulative", "setting": "[3]; 5 mg/kg p.o., 1 hour", "value": "5.7 ± 2.5", "unit": "mL"}, {"measurement": "Potassium ion, Cumulative", "setting": "[3]; 5 mg/kg p.o., 3 hours", "value": ".16 ± .09 mEq"}, {"measurement": "Sodium ion, Cumulative", "setting": "[3]; 5 mg/kg p.o., 3 hours", "value": ".39 ± .25 mEq"}, {"measurement": "Urine Volume, Cumulative", "setting": "[3]; 5 mg/kg p.o., 3 hours", "value": "9.5 ± 3.6", "unit": "mL"}, {"measurement": "Potassium ion, Cumulative", "setting": "[3]; 5 mg/kg p.o., 6 hours", "value": ".26 ± .12 mEq"}, {"measurement": "Sodium ion, Cumulative", "setting": "[3]; 5 mg/kg p.o., 6 hours", "value": ".73 ± .32 mEq"}, {"measurement": "Urine Volume, Cumulative", "setting": "[3]; 5 mg/kg p.o., 6 hours", "value": "11.8 ± 3.9", "unit": "mL"}, {"measurement": "Potassium ion, Cumulative", "setting": "[3]; 15 mg/kg p.o., 1 hour", "value": ".04 ± .05 mEq"}, {"measurement": "Sodium ion, Cumulative", "setting": "[3]; 15 mg/kg p.o., 1 hour", "value": ".12 ± .16 mEq"}, {"measurement": "Urine Volume, Cumulative", "setting": "[3]; 15 mg/kg p.o., 1 hour", "value": "5.7 ± 4.4", "unit": "mL"}, {"measurement": "Potassium ion, Cumulative", "setting": "[3]; 15 mg/kg p.o., 3 hours", "value": ".12 ± .06 mEq"}, {"measurement": "Sodium ion, Cumulative", "setting": "[3]; 15 mg/kg p.o., 3 hours", "value": ".44 ± .20 mEq"}, {"measurement": "Urine Volume, Cumulative", "setting": "[3]; 15 mg/kg p.o., 3 hours", "value": "9.8 ± 3.2", "unit": "mL"}, {"measurement": "Potassium ion, Cumulative", "setting": "[3]; 15 mg/kg p.o., 6 hours", "value": ".20 ± .08 mEq"}, {"measurement": "Sodium ion, Cumulative", "setting": "[3]; 15 mg/kg p.o., 6 hours", "value": ".68 ± .28 mEq"}, {"measurement": "Urine Volume, Cumulative", "setting": "[3]; 15 mg/kg p.o., 6 hours", "value": "11.7 ± 3.3", "unit": "mL"}, {"measurement": "Potassium ion, Cumulative", "setting": "[3]; 30 mg/kg p.o., 1 hour", "value": ".04 ± .03 mEq"}, {"measurement": "Sodium ion, Cumulative", "setting": "[3]; 30 mg/kg p.o., 1 hour", "value": ".15 ± .12 mEq"}, {"measurement": "Urine Volume, Cumulative", "setting": "[3]; 30 mg/kg p.o., 1 hour", "value": "6.5 ± 2.3", "unit": "mL"}, {"measurement": "Potassium ion, Cumulative", "setting": "[3]; 30 mg/kg p.o., 3 hours", "value": ".15 ± .08 mEq"}, {"measurement": "Sodium ion, Cumulative", "setting": "[3]; 30 mg/kg p.o., 3 hours", "value": ".79 ± .38 mEq"}, {"measurement": "Urine Volume, Cumulative", "setting": "[3]; 30 mg/kg p.o., 3 hours", "value": "10.5 ± 2.5", "unit": "mL"}, {"measurement": "Potassium ion, Cumulative", "setting": "[3]; 30 mg/kg p.o., 6 hours", "value": ".27 ± .06 mEq"}, {"measurement": "Sodium ion, Cumulative", "setting": "[3]; 30 mg/kg p.o., 6 hours", "value": "1.48 ± .24 mEq"}, {"measurement": "Urine Volume, Cumulative", "setting": "[3]; 30 mg/kg p.o., 6 hours", "value": "14.6 ± 1.4", "unit": "mL"}, {"measurement": "diuresis", "setting": "[3]; 30 mg/kg p.o., at 1 hour and 6 hours post-drug", "value": "significant (p<0.05) diuresis"}, {"measurement": "natriuretic effect", "setting": "[3]; 30 mg/kg p.o., at the 3 and 6 hour time periods", "value": "significant natriuretic effect"}, {"measurement": "kaliuretic effects", "setting": "[3]; following compound administration, p.o.", "value": "No significant kaliuretic effects were observed"}]}
